Six compounds from patent US20230039917A1, “EXO-AZA SPIRO INHIBITORS OF MENIN-MLL INTERACTION” (Janssen Pharmaceutica NV, priority 2017, published 2023) can be followed below.

In general, IC50 refers to the midpoint of a concentration-inhibition curve.

Like-named read-outs stand apart in the source and are kept apart here. Where only a bound is given, the exact number is not on record here.

The target in test [1] is T1, menin.FITC-MBM1 complex (terbium chelate-labeled menin) (Homo sapiens, UniProt O00255, F410E/T541A).
T1 construct: Menin (a.a. 1-610-6×his tag) was labeled with terbium cryptate as follows
T1 sequence (O00255 with tags, fused parts or gaps F410E/T541A): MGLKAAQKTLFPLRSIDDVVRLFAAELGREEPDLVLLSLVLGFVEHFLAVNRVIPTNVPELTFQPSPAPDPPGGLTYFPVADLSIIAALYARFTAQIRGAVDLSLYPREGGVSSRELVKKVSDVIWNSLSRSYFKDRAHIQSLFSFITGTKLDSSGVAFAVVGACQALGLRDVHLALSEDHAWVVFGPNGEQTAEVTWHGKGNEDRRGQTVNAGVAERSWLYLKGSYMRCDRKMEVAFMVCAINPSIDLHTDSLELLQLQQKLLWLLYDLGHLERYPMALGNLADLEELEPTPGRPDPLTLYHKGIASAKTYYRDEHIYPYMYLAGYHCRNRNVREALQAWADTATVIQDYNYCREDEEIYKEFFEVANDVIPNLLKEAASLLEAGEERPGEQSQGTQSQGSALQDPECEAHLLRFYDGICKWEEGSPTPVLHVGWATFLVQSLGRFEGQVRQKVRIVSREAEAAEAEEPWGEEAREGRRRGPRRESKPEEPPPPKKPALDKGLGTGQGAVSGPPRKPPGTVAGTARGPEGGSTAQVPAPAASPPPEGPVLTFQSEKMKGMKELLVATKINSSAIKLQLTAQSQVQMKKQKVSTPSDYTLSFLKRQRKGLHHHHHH
Nature of the test: Menin/MLL homogenous time-resolved fluorescence (HTRF) assay. Format: binding. Here is the method: 2) Menin/MLL Homogenous Time-Resolved Fluorescence (HTRF) Assay
To an untreated, white 384-well microtiter plate was added 40 nL 200× test compound in DMSO and 4 μL 2× terbium chelate-labeled menin (vide infra for preparation) in assay buffer (40 mM Tris.HCl, pH 7.5, 50 mM NaCl, 1 mM DTT and 0.05% Plutonic F-127). After incubation of test compound and terbium chelate-labeled menin for 5 min at ambient temperature, 4 μL2× FITC-MBM1 peptide (FITC-β-alanine-[…]-NH2) in assay buffer was added, the microtiter plate centrifuged at 1000 rpm for 1 min and the assay mixtures incubated for 15 min at ambient temperature. The relative amount of menin.FITC-MBM1 complex present in an assay mixture is determined by measuring the homogenous time-resolved fluorescence (HTRF) of the terbium/FITC donor/acceptor fluorphore pair using a BMG Pherastar plate reader (ex. 337 nm/terbium em. 490 nm/FITC em. 520 nm) at ambient temperature. The degree of fluorescence resonance energy transfer (the HTRF value) is expressed as the ratio of the fluorescence emission intensities of the FITC and terbium fluorophores (F^em 520 nm/F^em 490 nm). The final concentrations of reagents in the binding assay are 100 pM terbium chelate-labeled menin (location 1) or 600 pM terbium chelate-labeled menin (location 2), 75 nM FITC-MBM1 peptide and 0.5% DMSO in assay buffer. Dose-response titrations of test compounds are conducted using an 11 point, three-fold serial dilution scheme, starting typically at 25 μM (location 1) or starting typically at 10 μM (location 2).
Compound potencies were determined by first calculating % inhibition at each compound concentration according to equation 1:
% inhibition=((HC−LC)−(HTRF^compound−LC))/(HC−LC))*100 (Eqn 1)
Where LC and HC are the HTRF values of the assay in the presence or absence of a saturating concentration of a compound that competes with FITC-MBM1 for binding to menin, and HTRF^compound is the measured HTRF value in the presence of the test compound. HC and LC HTRF values represent an average of at least 16 replicates per plate.
% inhibition=Bottom+(Top−Bottom)/(1+10^((log IC50−log [cmpd])*h)) (Eqn 2)
Where Bottom and Top are the lower and upper asymptotes of the dose-response curve, respectively, IC50 is the concentration of compound that yields 50% inhibition of signal and h is the Hill coefficient.
Preparation of Terbium cryptate labeling of Menin: Menin (a.a. 1-610-6×his tag) was labeled with terbium cryptate as follows. 2 mg of Menin was buffer exchanged into 1× phosphate buffered saline. 16 uM Menin was incubated with 4-fold molar excess NHS-terbium cryptate (Cisbio Bioassays, Bedford, Mass.) for 2 hours at room temperature. The labeled protein was purified away from free label by running the reaction over a Superdex 200 Increase 10/300 GL column at 0.75 ml/min. Peak fractions were collected, aliquoted and frozen at −80° C.

The subject of test [2] is MV-4-11 cells. Nature of the test: Proliferation assay A (spheroid assay) MV-4-11. It counts as cell-based. Conditions: Homo sapiens, MV4-11, 192 h, 8 d, AUC of confluence against time, absolute IC50, read-out: (3a) Spheroid assay MV-4-11 (IC50(μM)) Assay A. Here is the method: (§1) 3a) Proliferation Assay A
(§2) The anti-proliferative effect of menin/MLL protein/protein interaction inhibitor test compounds was assessed in human leukemia cell lines. The cell lines MV-4-11 and MOLM14 harbor MLL translocations and express the MLL fusion proteins MLL-AF4 and MLL-AF9, respectively, as well as the wildtype protein from the second allele. […] K562 was used as a control cell line containing two MLL wildtype alleles in order to exclude compounds that display general cytotoxic effects.
(§3) MV-4-11 and MOLM14 were cultured in RPMI-1640 (Sigma Aldrich) supplemented with 10% fetal bovine serum (HyClone), 2 mM L-glutamine (Sigma Aldrich) and 50 μg/ml gentamycin (Gibco). K562 were propagated in RPMI-1640 (Sigma Aldrich) supplemented with 20% fetal bovine serum (HyClone), 2 mM L-glutamine (Sigma Aldrich) and 50 μg/ml gentamycin (Gibco).
(§4) In order to assess the anti-proliferative effects, 1,500 MV-4-11, 300 MOLM14 or 750 K562 cells were seeded in 200 μl media per well in 96-well round bottom, ultra-low attachment plates (Costar, catalogue number 7007). Cell seeding numbers were chosen based on growth curves to ensure linear growth throughout the experiment. Test compounds were added at different concentrations and the DMSO content was normalized to 0.3%. Cells were incubated for 8 d at 37° C. and 5% CO2. Spheroid like growth was monitored in real-time by live-cell imaging (IncuCyteZOOM, Essenbio, 4× objective) acquiring one image every four hours for 8 d. Confluence (%) as a measure of spheroid size was determined using an integrated analysis tool.
(§5) In order to determine the cumulative effect of the test compounds over time, the area under the curve (AUC) in a plot of confluence against time was calculated. Confluence at the beginning of the experiment (t=0) was used as baseline for the AUC calculation.
(§6) Absolute IC50 values were calculated according to the following procedure:
(§7) % Control=(AUC sample/AUC control)*100
(§8) AUC control=mean AUC of control values (cells without compound/DMSO as vehicle control)
(§9) A non-linear curve fit was applied using the least squares (ordinary) fit method to the plot of % control versus compound concentration. Based on this, the absolute IC50 value (half maximal inhibitory concentration of the test compound causing an anti-proliferative effect of 50% relative to the vehicle control) was calculated.

Test [3] concerns MOLM14 cells. Nature of the test: Proliferation assay A (spheroid assay) MOLM14. Format: cell-based. Conditions: Homo sapiens, MOLM-14, 192 h, 8 d, AUC of confluence against time, absolute IC50, read-out: (3a) Spheroid assay MOLM14 (IC50(μM)) Assay A. Here is the method: as §1, §2, §3, §4, §5, §6, §7, §8, §9
The subject of test [4] is MV-4-11 cells. Nature of the test: Proliferation assay B (spheroid assay) MV-4-11. It counts as cell-based. Conditions: Homo sapiens, MV4-11, 192 h, confluence at day 8, read-out: (3b) Spheroid assay MV-4-11 (IC50(μM)) Assay B. Here is the method:
(§10) 3b) Proliferation Assay B
as §2
MV-4-11 and MOLM14 were cultured in RPMI-1640 (Sigma Aldrich) supplemented with 10% fetal bovine serum (HyClone), 2 mM L-glutamine (Sigma Aldrich) and 50 μg/ml gentamycin (Gibco). […]
In order to assess the anti-proliferative effects, 1,500 MV-4-11, 300 MOLM14 cells or 750 K562 cells were seeded in 200 μl media per well in 96-well round bottom, ultra-low attachment plates (Costar, catalogue number 7007). […] Spheroid like growth was measured in real-time by live-cell imaging (IncuCyteZOOM, Essenbio, 4× objective) acquiring images at day 8. Confluence (%) as a measure of spheroid size was determined using an integrated analysis tool.
In order to determine the effect of the test compounds over time, the confluence in each well as a measure of spheroid size, was calculated. […]
Absolute IC50 values were calculated as percent change in confluence as follows: […]

Test [5] deals with MOLM14 cells. Nature of the test: Proliferation assay B (spheroid assay) MOLM14. Format: cell-based, human. Conditions: Homo sapiens, MOLM-14, 192 h, confluence at day 8, read-out: (3b) Spheroid assay MOLM14 (IC50(μM)) Assay B. Here is the method: as §10, §2, §3
as §4, with “MOLM14 cells” for “MOLM14”, “measured” for “monitored”, “images at day 8.” for “one image every four hours for 8 d.”
In order to determine the effect of the test compounds over time, the confluence in each well as a measure of spheroid size, was calculated. Confluence […] at the beginning of the experiment (t=0) was used as baseline for the calculation.
Absolute IC50 values were calculated as percent change in confluence as follows:
LC=Low Control: cells treated with 1 μM of the cytotoxic agent staurosporin
HC=High Control: Mean confluence (%) (DMSO treated cells)
Effect=100−(100*(Sample−LC)/(HC−LC))
To determine the IC50 a curve is fitted to the plot of % Effect vs Log 10 compound concentration using a sigmoidal fit with a variable slope and fixing the maximum to 100% and the minimum to 0%.

Where [6] appears, read: location 1, read-out: (2) location 1 Menin HTRF assay (IC50 (nM)).
[7] abbreviates: location 2, read-out: (2) location 2 Menin HTRF assay (IC50 (nM)).

In the case of `FC(F)(F)Cc1cc2c(N3CC4(CC[C@H](NCc5ccccc5)C4)C3)ncnc2s1` [Compound 45], the values for the half-inhibitory concentration (IC50) in test [1] (setting [6]), in test [2] and in test [3] were 20.4 nM, 0.41 µM and 2.36 µM, respectively.

In the case of `O=c1[nH]c2ccc(CN[C@H]3CCC4(C3)CN(c3ncnc5sc(CC(F)(F)F)cc35)C4)cc2o1` (single isomer, unassigned) [Compound 56], the IC50 was 5.1 nM in test [1] (setting [7]), 0.45 µM in test [2] and 2 µM in test [3].

Take `N#CCn1c(=O)[nH]c2cc(CNC3CCC4(C3)CN(c3ncnc5sc(CC(F)(F)F)cc35)C4)ccc21` (stereo not shown) [Compound 99]: the half-inhibitory concentration (IC50) came out at 1.1 nM in test [1] (setting [7]), 0.03 µM in test [4] and 0.19 µM in test [5].

As for `FC(F)(F)Cc1cc2c(N3CCC4(CCC(Nc5ccc(-c6cc[nH]n6)cc5)C4)C3)ncnc2s1` (stereo not shown) [Compound 138], the 50% inhibitory concentration (IC50) is 8.8 nM in test [1] (setting [7]), 3.92 µM in test [2] and more than 3.75 µM in test [3].

Consider `FC(F)(F)Cc1cc2c(N3CC4(CCC(NCc5ccccc5)C4)C3)ncnc2s1` (single isomer, unassigned) [Compound 46], for which the concentration for half-maximal inhibition (IC50) in test [1] (setting [6]) came to 22 nM; in test [2] it was 0.31 µM; in test [3], 1.87 µM.

Take `O=c1[nH]c2cc(CN[C@H]3CCC4(C3)CN(c3ncnc5sc(CC(F)(F)F)cc35)C4)ccc2o1` (single isomer, unassigned) [Compound 58]: the IC50 in test [3] was determined as 0.14 µM.
